Reference: ChEMBL document CHEMBL3813600, “Identification of a novel boronic acid as a potent, selective, and orally active hormone sensitive lipase inhibitor” (Bioorg Med Chem, 2016)
Activity calls are given as the source filed them. The calls are words filed in the database; no cut-off is given here.

Columns and labels:
[1] = molecular target: T1, Hormone-sensitive lipase (Homo sapiens) (UniProt Q05469); assay: Inhibition of recombinant human HSL expressed in Sf9 insect cells at 1 uM using PNPB as substrate measured after 5 mins by spectrophotometric method
T1 sequence (whole entry): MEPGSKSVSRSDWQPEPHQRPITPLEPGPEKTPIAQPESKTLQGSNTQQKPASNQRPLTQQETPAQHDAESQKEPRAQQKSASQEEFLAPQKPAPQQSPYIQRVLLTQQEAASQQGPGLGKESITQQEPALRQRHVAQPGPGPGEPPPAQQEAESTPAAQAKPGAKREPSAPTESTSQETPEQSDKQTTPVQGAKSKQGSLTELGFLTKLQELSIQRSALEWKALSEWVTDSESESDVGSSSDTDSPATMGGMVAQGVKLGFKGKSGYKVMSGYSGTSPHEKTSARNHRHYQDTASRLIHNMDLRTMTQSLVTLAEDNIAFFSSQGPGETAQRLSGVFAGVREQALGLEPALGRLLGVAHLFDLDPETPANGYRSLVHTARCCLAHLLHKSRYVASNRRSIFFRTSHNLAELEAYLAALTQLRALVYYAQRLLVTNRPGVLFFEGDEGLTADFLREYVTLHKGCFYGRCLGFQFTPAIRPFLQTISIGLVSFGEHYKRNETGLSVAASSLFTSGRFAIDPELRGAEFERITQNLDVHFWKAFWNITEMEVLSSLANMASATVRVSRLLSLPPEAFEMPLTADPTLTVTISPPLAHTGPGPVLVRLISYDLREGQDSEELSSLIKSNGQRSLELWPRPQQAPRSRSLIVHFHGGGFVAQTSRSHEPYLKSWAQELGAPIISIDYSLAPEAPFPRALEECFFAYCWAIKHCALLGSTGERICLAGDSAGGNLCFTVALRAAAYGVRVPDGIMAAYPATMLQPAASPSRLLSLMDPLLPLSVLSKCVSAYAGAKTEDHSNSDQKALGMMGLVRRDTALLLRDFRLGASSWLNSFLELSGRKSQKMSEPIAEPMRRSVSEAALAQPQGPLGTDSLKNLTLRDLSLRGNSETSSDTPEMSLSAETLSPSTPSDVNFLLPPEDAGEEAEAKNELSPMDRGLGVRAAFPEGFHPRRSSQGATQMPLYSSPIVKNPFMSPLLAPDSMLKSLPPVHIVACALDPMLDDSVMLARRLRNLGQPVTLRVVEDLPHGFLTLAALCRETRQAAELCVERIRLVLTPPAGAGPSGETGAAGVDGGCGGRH

[2] = molecular target: T1, Hormone-sensitive lipase (Homo sapiens); assay: Inhibition of recombinant human HSL expressed in Sf9 insect cells at 10 uM using PNPB as substrate measured after 5 mins by spectrophotometric method
[3] = molecular target: T2, Hormone-sensitive lipase (Homo sapiens, UniProt Q05469); assay: Inhibition of recombinant human HSL expressed in Sf9 insect cells using PNPB as substrate measured after 5 mins by spectrophotometric method
T2 sequence (Q05469 whole entry): T1 sequence (whole entry)

[4] = Half life in rat plasma at 3 mg/kg, po by LC-MS/MS analysis; type: ADME, organism-based
[5] = molecular target: T1, Hormone-sensitive lipase (Homo sapiens); assay: Mixed-type inhibition of recombinant human HSL expressed in Sf9 insect cells using PNPB as substrate measured after 5 mins by Lineweaver-Burk plot analysis
[6] = molecular target: Acetylcholinesterase (Homo sapiens) (UniProt P22303); assay: Inhibition of AChE (unknown origin) at >50 uM preincubated for 10 mins followed by addition of acetylthiocholine iodide as substrate measured after 15 mins by spectrophotometric method
[7] = molecular target: Cholinesterase (Homo sapiens) (UniProt P06276); assay: Inhibition of BChE (unknown origin) at >50 uM preincubated for 10 mins followed by addition of S-butyrylthiocholine iodide as substrate measured after 15 mins by spectrophotometric method
[8] = test system: Rattus norvegicus; assay: Antilipolytic activity in orally dosed fasted Wistar rat assessed as reduction of plasma glycerol AUC ( 0 to 7 hrs); type: functional, organism-based
[9] = Cmax in rat at 3 mg/kg, po by LC-MS/MS analysis; type: ADME, organism-based; design: dose 3 mg/kg, route oral; settings: in vivo
[10] = AUC (0 to 7 hrs) in rat at 3 mg/kg, po by LC-MS/MS analysis; type: ADME, organism-based; design: time < 7 hr, dose 3 mg/kg, route oral; settings: in vivo
[11] = test system: Rattus norvegicus; assay: Antilipolytic activity in fasted Wistar rat assessed as reduction of plasma glycerol AUC ( 0 to 7 hrs) at 3 mg/kg, po; type: functional; design: scale not given: the % may be the effect or the level left
[12] = test system: Rattus norvegicus; assay: Antilipolytic activity in fasted Wistar rat assessed as reduction of plasma glycerol AUC ( 0 to 7 hrs) at 10 mg/kg, po; type: functional, organism-based

Chain of Acetylcholinesterase (Homo sapiens) (P22303 whole entry): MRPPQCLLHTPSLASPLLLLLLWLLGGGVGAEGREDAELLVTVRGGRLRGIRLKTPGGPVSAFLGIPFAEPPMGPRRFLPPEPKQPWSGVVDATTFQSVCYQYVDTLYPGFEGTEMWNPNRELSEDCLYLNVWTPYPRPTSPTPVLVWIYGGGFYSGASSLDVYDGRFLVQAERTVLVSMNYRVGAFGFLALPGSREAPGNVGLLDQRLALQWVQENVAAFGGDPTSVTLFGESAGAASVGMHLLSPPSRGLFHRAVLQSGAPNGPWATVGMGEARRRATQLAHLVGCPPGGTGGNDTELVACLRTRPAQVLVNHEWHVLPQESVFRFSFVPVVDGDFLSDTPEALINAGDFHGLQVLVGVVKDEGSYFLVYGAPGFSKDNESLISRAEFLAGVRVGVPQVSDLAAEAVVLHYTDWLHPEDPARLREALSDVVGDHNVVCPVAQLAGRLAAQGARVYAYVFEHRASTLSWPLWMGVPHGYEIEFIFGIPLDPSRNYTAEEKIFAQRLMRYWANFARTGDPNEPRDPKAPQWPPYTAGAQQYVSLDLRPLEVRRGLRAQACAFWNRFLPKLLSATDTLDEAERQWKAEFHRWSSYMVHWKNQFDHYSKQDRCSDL
Chain of Cholinesterase (Homo sapiens) (P06276 whole entry): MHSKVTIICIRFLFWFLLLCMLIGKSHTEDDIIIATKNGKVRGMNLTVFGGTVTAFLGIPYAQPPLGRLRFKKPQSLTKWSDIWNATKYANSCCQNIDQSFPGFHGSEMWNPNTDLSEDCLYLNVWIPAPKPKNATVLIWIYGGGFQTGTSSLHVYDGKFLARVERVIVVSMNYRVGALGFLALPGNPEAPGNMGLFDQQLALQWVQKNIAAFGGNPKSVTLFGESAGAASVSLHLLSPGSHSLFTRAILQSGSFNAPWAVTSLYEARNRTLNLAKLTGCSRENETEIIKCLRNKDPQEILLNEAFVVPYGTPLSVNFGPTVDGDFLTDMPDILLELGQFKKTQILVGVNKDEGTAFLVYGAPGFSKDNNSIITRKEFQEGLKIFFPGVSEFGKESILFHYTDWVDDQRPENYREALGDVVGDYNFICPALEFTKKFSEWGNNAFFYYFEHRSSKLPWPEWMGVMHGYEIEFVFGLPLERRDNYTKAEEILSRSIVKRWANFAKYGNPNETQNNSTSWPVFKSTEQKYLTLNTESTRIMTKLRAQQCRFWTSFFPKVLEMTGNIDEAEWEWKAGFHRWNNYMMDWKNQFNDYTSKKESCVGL

For `CC1(C)OB(c2ccccc2OCc2ccc(Oc3ccc(C(F)(F)F)cn3)cc2)OC1(C)C`, the inhibition [1] was 81%.

Compound `O=C(Nc1ccc(Oc2ccc(C(F)(F)F)cn2)cc1)N1CCC(O)CC1` has an inhibition [2] of 0%.

Compound `OB(O)c1ccccc1OCc1ccccc1` has an IC50 [3] of 130 nM.

For `CC1(C)OB(c2cccc(OCc3ccc(Oc4ccc(C(F)(F)F)cn4)cc3)c2)OC1(C)C`, the inhibition [1] was 59%.

In the case of `OB(O)c1ccccc1OCc1ccc(Oc2ccc(C(F)(F)F)cn2)cc1`, the IC50 [3] is reported as 7 nM, the inhibition [1] is reported as 89% and the half-life [4] is reported as 2.95 h. For the same compound, the inhibition [5] was “Active”, the inhibition [6] was “inactive” and the inhibition [7] was “inactive”. For the same compound, the Activity [8] was “Dose-dependent effect”, the Cmax [9] was 420 ng/mL and the AUC(0-t) at 7 h [10] was 1750 ng·h/mL. For the same compound, the Activity [11] was 11%.

Compound `O=P(O)(O)c1ccccc1OCc1ccc(Oc2ccc(C(F)(F)F)cn2)cc1` has an inhibition [1] of -5%.

Compound `O=C(Cc1ccc(Oc2ccc(C(F)(F)F)cn2)cc1)N1CCC(O)CC1` has an inhibition [2] of 2%.

`O=C(c1ccccc1OCc1ccc(Oc2ccc(C(F)(F)F)cn2)cc1)C(F)(F)F` gave an inhibition [1] of 1%.

With `N#Cc1ccccc1OCc1ccc(Oc2ccc(C(F)(F)F)cn2)cc1` the inhibition [1] was 0%.

For `O=C(Oc1ccc(Oc2ccc(C(F)(F)F)cn2)cc1)N1CCC(O)CC1`, the IC50 [3] was 270 nM and the Activity [12] was “Active”.

In the case of `CC1(C)OB(c2ccc(OCc3ccc(Oc4ccc(C(F)(F)F)cn4)cc3)cc2)OC1(C)C`, the inhibition [1] is reported as -10%.

With `O=C(O)c1ccccc1OCc1ccc(Oc2ccc(C(F)(F)F)cn2)cc1` the inhibition [1] was -8%.
